Results from patent publication US10130624B2, “Pharmaceutical compositions of amlodipine and benazepril” (LUPIN LIMITED, priority 2005, dated 2018).

Experiment: Preformulation compatibility study: amlodipine and benazepril blends, with or without excipients, at accelerated stability conditions; colour change and degradation products by HPLC
Assay type: physicochemical
Conditions: without any excipients
Procedure: The studies were carried out by blending amlodipine & benazepril and then mixing with excipients in amounts intended to be used in the proposed compositions. For example, amlodipine:benazepril:diluent were blended in the ratio 0.7:1:10, amlodipine:benazepril:disintegrant were blended in the ratio 0.7:1:2, amlodipine:benazepril:binder were blended in the ratio 0.7:1:2, and amlodipine:benazepril:lubricant were blended in the ratio 0.7:1:0.5.

In the case of `CCOC(=O)[C@H](CCc1ccccc1)N[C@H]1CCc2ccccc2N(CC(=O)O)C1=O` [Benazepril alone, Benazepril], the “Related substances: Amlodipine impurity D” value (Initial) is reported as 0.000%, the “Related substances: Benazepril impurity C” value (Initial) is reported as 0.130% and the “Related substances: Benazepril impurity G” value (Initial) is reported as 0.060%. For the same compound, the “Related substances: Total impurities” value (Initial) was 0.260%, the “Related substances: Amlodipine impurity D” value (charged on stability, 3M) was 0.000% and the “Related substances: Benazepril impurity C” value (charged on stability, 3M) was 0.143%. The “Related substances: Benazepril impurity G” value (charged on stability, 3M) was 0.000% and the “Related substances: Total impurities” value (charged on stability, 3M) was 0.267%.
